The source of these data is ChEMBL document CHEMBL1136694, “Aryl tetrahydropyridine inhibitors of farnesyltransferase: bioavailable analogues with improved cellular potency” (Bioorg Med Chem Lett, 2003).

SMILES strings stand for the structures.

Data set [1] has as its target Geranylgeranyl transferase type I (Homo sapiens, UniProt P49354+P53609). The data set can be described thus: In vitro inhibition of geranylgeranyltransferase-1. It is filed as protein-complex assay.
In data set [2] the target is Protein farnesyltransferase (Homo sapiens, UniProt P49354+P49356). The data set can be described thus: In vitro inhibition of farnesyltransferase. It counts as protein-complex assay.
Data set [3] has as its target Protein farnesyltransferase (Mus musculus, UniProt Q61239+Q8K2I1). The data set can be described thus: Inhibition of Ras farnesylation in Human Ha-Ras oncogene-transformed BALB/c 3T3 cells (EJ3 cells). It is filed as functional, cell-based.
The nature of data set [4]: Compound was tested for orally bioavailable in dogs with a half life of 1.2h. The settings on record: dog, in vivo, po. It is filed as ADME, organism-based, Canis lupus familiaris.
A short description of data set [5]: Compound was tested for orally bioavailable in dogs with a half life of 0.7 hr. It is filed as ADME, organism-based, Canis lupus familiaris. The note with it: dog, in vivo, po.

One may read the IC50 as the midpoint of a concentration-inhibition curve. High values mean weaker potency, low ones greater potency. Turning to `Cn1cncc1CN(Cc1ccc(Cl)c(Cl)c1)C(=O)N1CCC(C#N)=C(c2cccc3ccccc23)C1`, the IC50 in data set [1] is 1500 nM; in data set [2], 20 nM.
In general, EC50 refers to the concentration giving half of the maximal effect. A higher EC50 goes with a less potent agent. The molecule `N#CC1=C(c2cccc3ccccc23)CN(C(=O)CCc2cncn2Cc2ccc(C#N)cc2)CC1` displayed an EC50 in data set [3] of 28 nM. Besides, the values for the IC50 in data set [1] and in data set [2] were 1300 nM and 1.4 nM, respectively.
By bioavailability is commonly meant dose-corrected exposure relative to a reference, in per cent. The low end stands for little systemic uptake, the high end for much systemic uptake. For the molecule `Cn1cncc1C(NN1CCC(C#N)=C(c2cccc3ccccc23)C1)c1ccc(C#N)cc1` (stereo not drawn), the bioavailability in data set [4] was determined as 27%. The midpoint of the response in data set [3], the EC50, lay at 0.5 nM. Moreover, the IC50 was 600 nM in data set [1] and 0.5 nM in data set [2].
For `CN(Cc1ccc(C#N)cc1)[C@H](Cc1cncn1C)C(=O)N1CCC(C#N)=C(c2cccc3ccccc23)C1`, in data set [3], the EC50 is over 100 nM. The IC50 in data set [1] was 1600 nM; in data set [2] it was 0.92 nM.
Taken in the same sequence, the figures for `Cn1cncc1CN(Cc1ccc(C#N)c(Br)c1)C(=O)N1CCC(C#N)=C(c2cccc3ccccc23)C1` were over 1 nM, 1400 nM and 3.1 nM.
Taken in the same sequence, the figures for `Cn1cncc1C(c1ccc(C#N)cc1)N1CCC(C#N)=C(c2cccc3ccccc23)C1` (stereo not drawn) were 31 nM, 161000 nM and 0.5 nM.
For the molecule `Cn1cncc1CN(Cc1cccc(C#N)c1)C(=O)N1CCC(C#N)=C(c2cccc3ccccc23)C1`, the values for the IC50 in data set [1] and in data set [2] were 10000 nM and 59 nM, respectively.
For `Cn1cncc1CN(Cc1ccc(C#N)cc1)C(=O)N1CCC(C#N)=C(c2cccc3ccccc23)C1`, the EC50 in data set [3] turned out to be 97 nM. In addition, the IC50 was 4000 nM in data set [1] and 3.5 nM in data set [2].
`N#CC1=C(c2cccc3ccccc23)CN(C(=O)Cc2cncn2Cc2ccc(C#N)cc2)CC1` displayed an EC50 in data set [3] of 3.9 nM. The same molecule yielded a bioavailability in data set [5] of 10%. For the same molecule, in data set [1], the IC50 was found to be 4500 nM.
As to `N#CC1=C(c2cccc3ccccc23)CN(C(=O)Cc2cncn2Cc2ccc(C#N)c(Cl)c2)CC1`, in data set [3], the EC50 is over 100 nM. Also, the values for the IC50 in data set [1] and in data set [2] were 1300 nM and 15 nM, respectively.
As to `N#CC1=C(c2cccc3ccccc23)CN(C(=O)Cc2cncn2Cc2ccc(Cl)cc2)CC1`, the EC50 in data set [3] is over 100 nM. Besides, the half-maximal inhibitory concentration (IC50) in data set [1] is over 10000 nM; in data set [2] it was 35 nM.
Taken in the same sequence, the figures for `Cn1cncc1C(O)(CN1CCC(C#N)=C(c2cccc3ccccc23)C1)c1ccc(C#N)cc1` (stereo not drawn) were 4 nM, 540 nM and 0.48 nM.
Consider `COC1=C(C#N)CCN(C(=O)Cc2cncn2Cc2ccc(C#N)c(-c3cccc4ccccc34)c2)C1`, for which the EC50 in data set [3] was over 100 nM. Moreover, the 50% inhibitory concentration (IC50) in data set [1] is 2700 nM; in data set [2], 1.4 nM.
